Source: US20200078290A1, “Cosmetic Composition Comprising Extract Of Medicinal Herbs As Active Ingredient” (LG Household & Health Care Ltd., priority 2016, published 2020)

What was measured:
[1] = test system: RAW264.7 cell line; assay: Inhibition of NO production in LPS-stimulated RAW264.7 cells (GRIESS method); assay type: cell-based, mice; conditions: positive control, 10 ppm, RAW264.7, LPS
Experimental: In order to confirm the anti-inflammatory effect and the skin trouble-improving effect of the seven extracts obtained in Preparation Example 1, an experiment on the inhibition of nitrogen monoxide (NO) formation was conducted by the GRIESS method using RAW264.7 cell line (ATCC number: CRL-2278).
Specifically, RAW264.7 cells, which were macrophages of mice, were subcultured several times, and the cultured cells were put into a 24-well plate at a density of 3×10^5 […], and cultured for 24 hours. Subsequently, the cells were replaced with cell culture media containing the above-mentioned 7 kinds of extracts diluted to concentrations of […]. […] 100 μL of the supernatant was collected and transferred to a 96-well plate, and 100 μL of GRIESS solution was added thereto and reacted at room temperature for 10 minutes, and then the absorbance at 540 nm was measured to determine the NO inhibitory effect of the extracts. The NO production inhibition rate (%) was calculated using the following Calculation Equation 2, and the results are shown in Table 6. The experiments were each carried out three times, and the results are expressed as an average value.
Inhibition Rate of NO Production (%)={(Absorbance of negative control−Absorbance of each extract)/Absorbance of negative control}×100 [Calculation Equation 2]

[2] = test system: human-derived fibroblasts; assay: Promotion of type 1 collagen synthesis in human fibroblasts (PICP EIA kit); assay type: cell-based; conditions: positive control, 52.85 ppm
Experimental: Seven kinds of extracts obtained in Preparation Example 1 were added to culture media of human-derived fibroblasts in order to confirm the effect of promoting type I collagen synthesis at the cellular level. The synthesized collagen was measured and quantitated using a PICP EIA kit (Procollagen Type I C-Peptide Enzyme Immuno Assay Kit). In order to measure the amount of synthesized collagen, the extracts of Examples 1 to 7 were added to the culture media (DMEM medium) of the fibroblasts at final concentrations of 1,000 ppm and 10,000 ppm, and cultured for 48 hours. The culture broth was collected and the degree of type 1 collagen synthesis was measured with a PICP EIA kit at 450 nm using a spectrophotometer. For the comparison of the effects, the degree of collagen synthesis was measured in the same manner for the culture medium of the fibroblasts not treated with the extract (negative control) and the culture medium (positive control) in which vitamin C was added to a final concentration of 52.85 ppm. The rate of increase in collagen production was calculated as a ratio of collagen production relative to negative control, and the results are shown in Table 3 below. The experiments were conducted four times and the results are expressed as an average value.

SMILES | Inhibition Rate of NO Production [1] | Increased rate (collagen production relative to negative control) [2] | Production amount of type 1 collagen ([2]; average of 4)
CNC(=N)NCCC[C@H](N)C(=O)O [L-NMMA, L-NG-monomethylarginine] | 41.0% |  | 
O=C1O[C@H]([C@@H](O)CO)C(O)=C1O [Vitamin C, vitamin C] |  | 64.3% | 246.8 ng/mL
